Assay results taken from patent publication US20160031905A1, “Macrocyclic LRRK2 Kinase Inhibitors” (IPSEN PHARMA S.A.S., priority 2013, published 2016).
Structures can show the parent of a compound that is named as a salt.

Experiments:
[1] = target: T1, LRRK2 recombinant protein (Homo sapiens, UniProt Q5S007); assay: Radiometric protein kinase assay (33PanQinase Activity Assay), in vitro peptide-based kinase assay; type: biochemical; conditions: protein kinase LRRK2 7.3 nM, ATP 0.3 μM, substrate GSK3(14-27), 30° C. for 60 minutes
T1 construct: purchased Invitrogen Corporation
T1 sequence (Q5S007 whole entry): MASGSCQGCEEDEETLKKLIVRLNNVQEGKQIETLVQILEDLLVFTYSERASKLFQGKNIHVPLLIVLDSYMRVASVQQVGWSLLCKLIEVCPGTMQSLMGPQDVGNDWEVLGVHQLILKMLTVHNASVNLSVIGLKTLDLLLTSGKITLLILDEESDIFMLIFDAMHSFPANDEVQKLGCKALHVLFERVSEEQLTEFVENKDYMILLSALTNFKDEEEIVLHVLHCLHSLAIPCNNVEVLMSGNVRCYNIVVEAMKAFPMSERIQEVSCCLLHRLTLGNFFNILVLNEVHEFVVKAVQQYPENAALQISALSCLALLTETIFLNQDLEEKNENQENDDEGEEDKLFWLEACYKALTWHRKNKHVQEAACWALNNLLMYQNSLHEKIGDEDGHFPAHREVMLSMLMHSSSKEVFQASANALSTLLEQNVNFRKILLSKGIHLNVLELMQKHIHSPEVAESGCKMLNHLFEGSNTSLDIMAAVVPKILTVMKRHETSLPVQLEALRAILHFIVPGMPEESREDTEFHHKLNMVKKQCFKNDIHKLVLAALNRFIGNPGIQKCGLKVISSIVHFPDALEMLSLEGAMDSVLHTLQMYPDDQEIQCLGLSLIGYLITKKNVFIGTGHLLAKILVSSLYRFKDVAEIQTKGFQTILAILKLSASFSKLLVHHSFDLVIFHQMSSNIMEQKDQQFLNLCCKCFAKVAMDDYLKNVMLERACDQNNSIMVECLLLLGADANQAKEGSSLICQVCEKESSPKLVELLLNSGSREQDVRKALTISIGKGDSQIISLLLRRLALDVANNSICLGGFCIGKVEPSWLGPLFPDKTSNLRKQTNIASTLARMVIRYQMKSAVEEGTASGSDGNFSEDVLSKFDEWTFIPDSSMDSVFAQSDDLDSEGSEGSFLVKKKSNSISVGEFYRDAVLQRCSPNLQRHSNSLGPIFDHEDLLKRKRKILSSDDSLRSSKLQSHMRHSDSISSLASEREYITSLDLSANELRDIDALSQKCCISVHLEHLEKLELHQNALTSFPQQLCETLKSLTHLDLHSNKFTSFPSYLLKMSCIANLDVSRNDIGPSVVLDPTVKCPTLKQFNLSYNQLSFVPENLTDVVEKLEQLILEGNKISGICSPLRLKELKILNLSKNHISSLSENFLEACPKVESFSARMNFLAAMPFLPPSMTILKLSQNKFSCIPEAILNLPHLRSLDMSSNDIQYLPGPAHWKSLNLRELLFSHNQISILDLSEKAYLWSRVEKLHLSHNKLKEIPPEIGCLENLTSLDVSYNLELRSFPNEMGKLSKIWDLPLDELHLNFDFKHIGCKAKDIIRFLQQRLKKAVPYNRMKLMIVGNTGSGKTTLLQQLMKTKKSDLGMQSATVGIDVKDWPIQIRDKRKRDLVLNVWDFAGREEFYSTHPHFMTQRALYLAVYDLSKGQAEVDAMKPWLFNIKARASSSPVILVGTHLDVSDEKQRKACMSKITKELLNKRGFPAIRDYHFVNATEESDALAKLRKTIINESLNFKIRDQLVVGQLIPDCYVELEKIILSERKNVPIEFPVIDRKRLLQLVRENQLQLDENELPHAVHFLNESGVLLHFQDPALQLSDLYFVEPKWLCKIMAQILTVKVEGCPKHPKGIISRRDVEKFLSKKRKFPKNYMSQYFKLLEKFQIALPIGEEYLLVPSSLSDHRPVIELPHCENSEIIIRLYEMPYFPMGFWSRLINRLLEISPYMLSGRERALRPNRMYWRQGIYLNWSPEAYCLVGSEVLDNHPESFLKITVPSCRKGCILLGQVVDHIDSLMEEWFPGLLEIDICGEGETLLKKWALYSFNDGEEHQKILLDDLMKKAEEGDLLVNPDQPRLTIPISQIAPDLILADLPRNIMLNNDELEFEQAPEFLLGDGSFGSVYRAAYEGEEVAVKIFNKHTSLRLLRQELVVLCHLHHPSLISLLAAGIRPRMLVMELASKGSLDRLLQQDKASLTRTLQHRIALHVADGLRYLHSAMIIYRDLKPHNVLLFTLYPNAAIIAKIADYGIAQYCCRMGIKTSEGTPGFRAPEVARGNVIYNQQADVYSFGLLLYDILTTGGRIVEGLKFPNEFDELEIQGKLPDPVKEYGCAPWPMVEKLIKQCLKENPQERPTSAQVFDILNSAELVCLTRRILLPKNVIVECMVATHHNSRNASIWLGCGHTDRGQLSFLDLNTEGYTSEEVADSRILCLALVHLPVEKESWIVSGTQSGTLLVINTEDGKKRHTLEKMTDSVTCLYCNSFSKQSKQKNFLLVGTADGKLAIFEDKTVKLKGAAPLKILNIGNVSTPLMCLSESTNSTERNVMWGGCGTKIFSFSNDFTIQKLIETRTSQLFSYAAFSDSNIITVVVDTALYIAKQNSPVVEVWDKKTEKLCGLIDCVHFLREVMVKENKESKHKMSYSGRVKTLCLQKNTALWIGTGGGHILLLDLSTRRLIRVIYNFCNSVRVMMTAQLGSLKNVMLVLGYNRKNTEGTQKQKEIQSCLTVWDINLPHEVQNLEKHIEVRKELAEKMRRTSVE
Procedure: The inhibition of LRRK2 kinase was assessed using LRRK2 recombinant protein in an in vitro peptide-based kinase assay.
A radiometric protein kinase assay (^33PanQinase® Activity Assay) is used for measuring the kinase activity. All assays are performed in 96-well FlashPlates™ from Perkin Elmer in a 50 μl reaction volume. The reaction cocktail is […] in 4 steps in the following order: • 10 μl of non-radioactive ATP solution (in H2O) • 25 μl of assay buffer/[γ-^33P]-ATP mixture • 5 μl of test sample in 10% DMSO • 10 μl of enzyme/substrate mixture
The assay for LRRK2 contains 70 mM HEPES-NaOH pH 7.5, 3 mM MgCl2, 3 mM MnCl2, 3 μM Na-orthovanadate, 1.2 mM DTT, 50 μg/ml PEG20000, ATP (0.3 μM), [γ-^33P]-ATP (approx. […] per well), protein kinase LRRK2 (7.3 nM) and substrate (GSK3(14-27), 1.0 μg/50 μl). The kinase is obtained from Invitrogen Corporation.
The reaction cocktails were incubated at 30° C. for 60 minutes. The reaction was stopped with 50 μl of 2% (v/v) H3PO4, plates were aspirated and washed two times with 200 μl 0.9% (w/v) NaCl. Incorporation of ^33Pi (counting of “cpm”) was determined with a microplate scintillation counter.
The compounds are dissolved to 10 mM in DMSO. Where needed, solutions are sonicated in a bath sonicator.

Row | SMILES | IC50 [1] | melting point
1 | Fc1ccc2cc1-c1cnn3ccc(nc13)NCCCNCCO2 [Compound G6] | < 100 nM | 197.6 °C
2 | CN1CCCOc2ccc(F)c(c2)-c2cnn3ccc(nc23)NCC1 [Compound G25] | 100 to 1000 nM | 168.8 °C
3 | CC1CNCCCNc2ccn3ncc(c3n2)-c2cc(ccc2F)O1 (stereo not drawn) [Compound G28] | < 100 nM | > 300 °C
4 | Fc1ccc2cc1-c1cnn3ccc(nc13)NCCNCCO2 (as salt: hydrochloride) [Compound C1] |  | > 300 °C
5 | Fc1ccc2cc1-c1cnn3ccc(nc13)NCCCNCCN2 [Compound G12] | < 100 nM | > 300 °C
6 | CN1CCCNc2ccn3ncc(c3n2)-c2cc(ccc2F)OCC1 [Compound G18] | < 100 nM | 
7 | c1cc2cc(c1)-c1cnc3ccc(nn13)NCCCNCCO2 [Compound G4] | < 100 nM | > 300 °C
8 | c1cc2cc(c1)-c1cnn3ccc(nc13)NCCCNCCCN2 (as salt: HCl) [Compound G1] |  | 280 °C
9 | c1cc2cc(c1)-c1cnn3ccc(nc13)NCCNCCCN2 [Compound D3] | < 100 nM | > 300 °C
10 | CC1CNCCCNc2ccn3ncc(c3n2)-c2cccc(c2)O1 (stereo not drawn) [Compound G23] | < 100 nM | > 300 °C
11 | c1cc2cc(c1)-c1cnn3ccc(nc13)NCCCCNCCCO2 [Compound D5] | < 100 nM | 146.9 °C
12 | CN1CCCNCCOc2cccc(c2)-c2cnn3ccc1nc23 [Compound G17] | < 100 nM | 297.5 °C
13 | c1cc2cc(c1)-c1cnn3ccc(nc13)OCCNCCCN2 [Compound G8] | < 100 nM | 276.7 °C
14 | c1cc2cc(c1)-c1cnn3ccc(nc13)OCCCNCCN2 (as salt: HCl) [Compound G3] |  | 280 °C
15 | Fc1ccc2cc1-c1cnn3ccc(nc13)OCCCNCCN2 [Compound G19] | < 100 nM | 279.1 °C
16 | CN1CCNCCOc2cccc(c2)-c2cnn3ccc1nc23 [Compound G2] | < 100 nM | > 300 °C
17 | CC1COc2cccc(c2)-c2cnn3ccc(nc23)NCCCN1 (stereo not drawn) [Compound G31] | < 100 nM | 
18 | c1cc2cc(c1)-c1cnn3ccc(nc13)OCCCNCCN2 [Compound G3] | < 100 nM | 
19 | CN1CCNCCCOc2cccc(c2)-c2cnn3ccc1nc23 [Compound G22] | < 100 nM | 286.4 °C
20 | Clc1ccc2cc1-c1cnn3ccc(nc13)NCCNCCCO2 [Compound G30] | 100 to 1000 nM | > 300 °C

Row | SMILES | IC50 [1] | melting point
21 | CN1CCCNCCOc2ccc(F)c(c2)-c2cnc3ccc1nn23 [Compound G24] | < 100 nM | > 300 °C
22 | CN1CCCNc2ccn3ncc(c3n2)-c2cccc(c2)OCC1 [Compound G20] | < 100 nM | 
23 | Fc1ccc2cc1-c1cnn3ccc(nc13)NCCNCCO2 [Compound C1] | < 100 nM | 
24 | CN1CCNCCCOc2ccc(F)c(c2)-c2cnn3ccc1nc23 [Compound G26] | < 100 nM | > 300 °C
25 | c1cc2cc(c1)-c1cnn3ccc(nc13)NCCCNCCN2 [Compound D4] | < 100 nM | 296.8 °C
26 | c1cc2cc(c1)-c1cnn3ccc(nc13)NCCCNCCO2 [Compound A33] | < 100 nM | > 300 °C
27 | Fc1ccc2cc1-c1cnn3ccc(nc13)NCCNCCN2 [Compound G7] | < 100 nM | > 300 °C
28 | CC1CNCCNc2ccn3ncc(c3n2)-c2cccc(c2)O1 (racemic) [Compound G5] | < 100 nM | 215 °C
29 | CN1CCCNCCOc2ccc(F)c(c2)-c2cnn3ccc1nc23 (as salt: HCl) [Compound G16] |  | > 300 °C
30 | Fc1ccc2cc1-c1cnn3ccc(nc13)NCCNCCCN2 [Compound G21] | < 100 nM | > 300 °C
31 | Fc1ccc2cc1OCCNCCNc1ccn3ncc-2c3n1 [Compound C2] | < 100 nM | > 300 °C
32 | Clc1ccc2cc1-c1cnn3ccc(nc13)NCCCNCCO2 [Compound G27] | < 100 nM | > 300 °C
33 | c1cc2cc(c1)-c1cnn3ccc(nc13)NCCCNCCCN2 [Compound G1] | < 100 nM | 
34 | c1cc2cc(c1)-c1cnn3ccc(nc13)NCCNCCN2 [Compound D1] | < 100 nM | > 300 °C
35 | CN1CCCNc2ccn3ncc(c3n2)-c2cc(ccc2F)OCC1 (as salt: HCl) [Compound G18] |  | > 300 °C
36 | CC1COc2cccc(c2)-c2cnn3ccc(nc23)NCCN1 (stereo not drawn) [Compound G11] | < 100 nM | 245.9 °C
37 | CN1CCCNCCOc2ccc(F)c(c2)-c2cnn3ccc1nc23 [Compound G16] | < 100 nM | 
38 | Fc1ccc2cc1-c1cnc3ccc(nn13)NCCCNCCO2 [Compound G15] | < 100 nM | 
39 | c1cc2cc(c1)-c1cnn3ccc(nc13)NCCCCNCCO2 [Compound G14] | < 100 nM | > 300 °C

Other lines, results leading:

Row | IC50 [1] | melting point | SMILES
40 | < 100 nM |  | CN1CCCNCCNc2ccc(F)c(c2)-c2cnc3ccc1nn23 [Compound G50]
41 | < 100 nM | > 300 °C | Fc1ccc2cc1-c1cnc3ccc(nn13)NCCCNCCN2 [Compound G43]
42 | < 100 nM | 242.3 °C | CN1CCCOc2ccc3ncc(n3n2)-c2cc(ccc2F)NCC1 [Compound G44]
43 | < 100 nM | 263.8 °C | CN1CCNCCCNc2ccc(F)c(c2)-c2cnc3ccc1nn23 [Compound G41]
44 | < 100 nM | 289.1 °C | CN1CCCNc2ccc(F)c(c2)-c2cnc3ccc(nn23)NCC1 [Compound G45]
45 | < 100 nM | > 300 °C | Fc1ccc2cc1-c1cnc3ccc(nn13)OCCCNCCN2 [Compound G36]
46 | < 100 nM | 262.6 °C | N#CCN1CCCNc2ccc(F)c(c2)-c2cnn3ccc(nc23)NCC1 [Compound G47]
47 | < 100 nM |  | Fc1ccc2cc1-c1cnn3ccc(nc13)NCCCOCCN2 [Compound G49]
48 | < 100 nM | > 300 °C | Fc1ccc2cc1-c1cnc3ccc(nn13)NCCNCCCO2 [Compound G33]
49 | 100 to 1000 nM | 296.8 °C | Cc1ccc2cc1-c1cnn3ccc(nc13)NCCCNCCO2 [Compound G42]
50 | < 100 nM | > 300 °C | CN1CCNCCCOc2ccc(F)c(c2)-c2cnc3ccc1nn23 [Compound G34]
51 | < 100 nM | 284.8 °C | CN1CCCNCCNc2ccc(F)c(c2)-c2cnn3ccc1nc23 [Compound G35]
52 | < 100 nM | > 300 °C | CN1CCNCCCNc2ccc(F)c(c2)-c2cnn3ccc1nc23 [Compound G39]
53 | < 100 nM | 270.4 °C | Fc1ccc2cc1-c1cnn3ccc(nc13)NCCCCNCCN2 [Compound G46]
54 | 100 to 1000 nM | 289.4 °C | CN1CCCNc2ccc(F)c(c2)-c2cnc3ccc(nn23)N(C)CC1 [Compound G48]
55 | < 100 nM | > 300 °C | c1cc2cc(c1)-c1cnc3ccc(nn13)NCCNCCCO2 [Compound G32]
56 | < 100 nM | > 300 °C | Fc1ccc2cc1-c1cnc3ccc(nn13)NCCNCCCN2 [Compound G37]
57 | < 100 nM | > 300 °C | Fc1ccc2cc1-c1cnn3ccc(nc13)NCCCCNCCO2 [Compound G40]
